Laboratory results from publication PMC8427641 (ACS Omega, 2021).

The compounds below were run against T1, α-amylase (Homo sapiens, UniProt P04746) (assay: α-Amylase inhibition assay).
T1 sequence (P04746 16-511): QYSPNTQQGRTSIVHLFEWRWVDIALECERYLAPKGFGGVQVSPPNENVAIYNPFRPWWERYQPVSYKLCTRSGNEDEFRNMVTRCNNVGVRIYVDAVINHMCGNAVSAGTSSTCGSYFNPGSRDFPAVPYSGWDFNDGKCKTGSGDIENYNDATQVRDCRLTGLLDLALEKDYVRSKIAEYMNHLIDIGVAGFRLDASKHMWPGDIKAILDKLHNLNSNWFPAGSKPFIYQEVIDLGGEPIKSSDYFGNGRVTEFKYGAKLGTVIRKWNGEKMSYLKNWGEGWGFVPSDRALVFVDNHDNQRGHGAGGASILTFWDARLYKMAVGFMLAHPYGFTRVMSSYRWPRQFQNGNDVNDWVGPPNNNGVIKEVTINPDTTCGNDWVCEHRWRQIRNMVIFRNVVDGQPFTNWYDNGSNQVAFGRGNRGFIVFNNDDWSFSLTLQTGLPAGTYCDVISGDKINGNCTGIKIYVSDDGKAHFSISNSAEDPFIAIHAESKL
Type: biochemical

IC50	Structure (SMILES)
2150 ± 60 nM	Fc1ccc2[nH]c(-c3ccc(OCc4ccccc4)cc3)nc2c1 [Compound 31, 5-Fluoro-2-(4^′-(benzyloxy)phenyl)-1H-benzo[d]imidazole]
2160 ± 20 nM	COc1cc(-c2nc3cc(Cl)ccc3[nH]2)ccc1OCc1ccccc1 [Compound 24, 5-Chloro-2-(4^′-(benzyloxy)-3^′-methoxyphenyl)-1H-benzo[d]imidazole]
2470 ± 110 nM	Clc1ccc2[nH]c(-c3cccc(OCc4ccccc4)c3)nc2c1 [Compound 29, 5-Chloro-2-(3^′-(benzyloxy)phenyl)-1H-benzo[d]imidazole]
2160 ± 70 nM	Cc1cc2nc(-c3ccc(OCc4ccccc4)cc3)[nH]c2cc1C [Compound 30, 5,6-Dimethyl-2-(4^′-(benzyloxy)phenyl)-1H-benzo[d]imidazole]
